# Results from patent US20020114813A1, “Compounds” (priority 1990, published 2002).
# Read-outs that look alike come from different tables or passages of the source.
# Test system: H.Ep-2 cell line
# Assay: Cytotoxicity in vitro, cell survival by trypan blue exclusion
# Format: cell-based
# Conditions: Homo sapiens, read-out: IC50 (dose required to give 50% cell survival)
# Procedure: Cytotoxicity in vitro. The human epidermoid carcinoma cell line H.Ep-2 was originally obtained from a metastatic nodule in the neck of a patient with a primary tumour of the larynx. it was established in tissue culture after two generations in X-irradiated, cortisone-treated rats. Immunocytochemistry has shown the cells to bind the H17E2 antibody, but not HMFGl, which was used as a negative control in these studies. Cells were cultured in RPMI 1640 tissue culture medium supplemented with 10% foetal calf serum (Gibco Ltd, Paisley, Scotland). For cell survival experiments, after harvesting with 0.02% EDTA, 5×10^5 cells were plated in quadruplicate into 25-cm^2 Falcon flasks (Becton Dickinson, N.J., USA). Twenty-four hours later the cytotoxic agent was added (either amygdalin alone, β-glucosidase alone, amygdalin plus β-glucosidase, potassium cyanide alone, amygdalin plus H17E2β-glucosidase conjugate or amygdalin plus HMFGl-β-glucosidase conjugate). After 24 h exposure, the medium containing the drug was replaced with fresh medium and the cells allowed to grow for a further 24 h before counting by haemacytometry, using trypan blue exclusion as the criterion for cell integrity.
compound,measurement,setting,value
"N#C[C@H](O[C@@H]1O[C@H](CO[C@@H]2O[C@H](CO)[C@@H](O)[C@H](O)[C@H]2O)[C@@H](O)[C@H](O)[C@H]1O)c1ccccc1 [amygdalin, D-mandelonitrile-β-D-glucosido-6-β-D-glycoside]",IC50,"HEp-2, in the presence of 0.35 μM β-glucosidase",600 ± 300 µM
same,IC50,"HEp-2, in the presence of 3.5 μM β-glucosidase",500 ± 200 µM
